From patent US20110293746A1, “Modulation of Gsk-3Beta and Method of Treating Proliferative Disorders” (Agency For Science, Technology and Research, priority 2004, published 2011)

Tests used:
GSK-3α = molecular target: T1, GSK-3α (Homo sapiens, UniProt P49840); assay: Immunoblot analysis of GSK-3 phosphorylation status in HCT116 cells; assay type: cell-based
T1 construct: endogenous in cells; host or cells: HCT116
Method: (§1) Protein concentration was quantified (Bio-Rad, Hercules, Calif.) and protein samples (50 μg) were separated by SDS/PAGE and transferred onto Immobilon™ membranes (Millipore, Bedford, Mass.). […] To detect Bax conformational change, cells were lysed in 1% Chaps buffer and the soluble fraction was immunoprecipitated with anti-Bax monoclonal antibody (6A7, BD, PharMingen), followed by immunoblotting with anti-Bax polyclonal antibody.
(§2) Subcellular fractionation: Cells were lysed in mitochondria lysis buffer (210 mM Mannitol, 70 mM Sucrose, 10 mM Hepes (pH, 7.4), 1 mM EDTA, protease inhibitor cocktail) with a Dounce homogenizer and subjected to centrifugation at 1000×g to pellet the nuclei. Post-nuclear supernatant was centrifuged at 10,000×g to pellet the mitochondria-enriched heavy membrane fraction, and the resulting supernatant was further centrifuged to obtain cytosolic fraction. Total proteins (30 μg) from cytosolic or mitochondrial fractions were subjected to immunoblot analysis.

GSK-3β = molecular target: T2, GSK-3β (Homo sapiens, UniProt P49841); assay: as above; assay type: cell-based
T2 construct: endogenous in cells; host or cells: HCT116
T2 sequence (P49841 whole entry): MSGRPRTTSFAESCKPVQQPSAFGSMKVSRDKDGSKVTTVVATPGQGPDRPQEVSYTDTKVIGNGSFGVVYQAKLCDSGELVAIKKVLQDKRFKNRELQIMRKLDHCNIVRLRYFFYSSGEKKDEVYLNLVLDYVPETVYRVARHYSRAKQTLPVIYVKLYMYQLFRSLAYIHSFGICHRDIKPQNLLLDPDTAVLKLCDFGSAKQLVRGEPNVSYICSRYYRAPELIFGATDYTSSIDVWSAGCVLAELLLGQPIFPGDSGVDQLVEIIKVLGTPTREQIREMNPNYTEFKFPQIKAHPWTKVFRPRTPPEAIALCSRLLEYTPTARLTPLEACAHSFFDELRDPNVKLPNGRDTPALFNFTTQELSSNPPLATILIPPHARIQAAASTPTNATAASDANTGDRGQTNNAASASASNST
Method: as §1, §2

LoVo cells = assay: Apoptosis upon DNA damage; assay type: cell-based, Human; settings: p53 wild-type, no Bax protein; data not shown
p53 in HCT116 cells = assay: p53 accumulation in cytosol and mitochondria (subcellular fractionation, Western blot); assay type: cell-based, Human; settings: in the presence of LY2119301, etoposide 24 h
Method: (§3) Western blotting, immunoprecipitation and microarray analysis: Cells were scraped, collected and lysed as described previously (Yu, Q., et al. Cancer Res, 62: 5743-5748, 2002). Briefly, cells were lysed with cell lysis buffer (0.3% NP40, 1 mM EDTA, 50 mM Tris-HCl (pH 7.4), 2 mM EGTA, 1% Triton X-100, […], 25 mM NaF, 1 mM Na3VO4, 2 mM AEBSF, 5 μg/ml aprotinin, 1 μg/ml leupeptin) for 30 minutes on ice, and the lysates were clarified by centrifugation at 12,000×g for 15 minutes at 4° C. Protein concentration was quantified (Bio-Rad, Hercules, Calif.) and protein samples (50 μg) were separated by SDS/PAGE and transferred onto Immobilon™ membranes (Millipore, Bedford, Mass.). Antibodies against the following proteins were used: p53 (DO-1), p21, PARP, GSK-α/β, α-Tubulin, and β-actin (Santa Cruz Biotechnology), Puma (Ab-1, Oncogene), Bax (Sigma), phosphor-(Ser9/21)-GSK-3α/β and Caspase-9 (Cell Signaling Technologies), phosphor-(Tyr216/279)-GSK-3α/β (Upstate Biotechnologies), cytochrome c (BD PharMingen). To detect Bax conformational change, cells were lysed in 1% Chaps buffer and the soluble fraction was immunoprecipitated with anti-Bax monoclonal antibody (6A7, BD, PharMingen), followed by immunoblotting with anti-Bax polyclonal antibody. Microarray analysis was performed as described (Kho, P. S., et al. J Biol Chem, 279: 21183-21192, 2004).
as §2

HCT116 Bax −/− cells [1] = assay: FACS apoptosis and immunoblot; assay type: cell-based, Human
Method: (§4) Cell culture and drug treatments: Human colon cancer cell line HCT116 and its derived isogenic p53^−/−, Puma^−/−, Bax^−/− and p53-inducible DLD cell lines were kindly provided by Dr. Bert Vogelstein (Johns Hopkins University, MD). RKO and RKO/E6 cells were from ATCC. Cells were cultured in DMEM containing 10% FBS. All culture reagents and media were from Invitrogen. 5-Fluorouracil, Adriamycin, etoposide and lithium chloride were purchased from Sigma. GSK-3β specific small molecule inhibitor LY2119301 was a gift from Eli Lilly (Indianapolis) and SB-216763, SB-415283 were obtained from BIOMOL.
as §3
(§5) FACS analysis of DNA content and caspase-3 activity: Cells were harvested and fixed in 70% ethanol. Fixed cells were stained with propidium iodide (50 μg/ml) after treatment with RNase (100 μg/ml). The stained cells were analyzed for DNA content by fluorescence-activated cell sorting (FACS) in a FACScalibur™ (Becton Dickinson Instrument, San Jose, Calif.). Cell cycle fractions were quantified using the CellQues™ software (Becton Dickinson). To measure caspase-3 activity, cells were fixed with Cytofix/Cytoperm™ solution (BD PharMingen) as instructed, and then stained with FITC-conjugated rabbit anti-active caspase-3 monoclonal antibody (BD PharMingen). Quantification of cells positive for the caspase-3 detection was performed by flow cytometry.

HCT116 Puma −/− cells = assay: FACS apoptosis and immunoblot; assay type: cell-based, Human
Method: as §4, §3, §5

HCT116 Bax −/− cells [2] = assay: Mitochondrial membrane potential by JC-1 staining and FACS; assay type: cell-based, Human; settings: co-treated with LY2119301 and genotoxic treatments
Method: (§6) Measurement of mitochondrial permeability transition: Cells were harvested by centrifugation at 300×g at 4° C. for 5 min. Mitochondrial permeability transition was determined by staining the cells with JC-1 (BD PharMingen) according to the manufacturer's instructions. Mitochondrial permeability transition was quantified by flow cytometric determination of cells with decreased red fluorescence, i.e. with mitochondria displaying a lower membrane potential (ΔΨm). Data are given in percentage of cells with low ΔΨm.

HCT116 cells (Bax+/+) = assay: as above; assay type: cell-based, Human; settings: co-treated with LY2119301 and genotoxic treatments
Method: as §6

HCT116 cells = assay: Western blots of cytosolic fractions: cytochrome c release and caspase-9 processing; assay type: cell-based, Human; settings: after DNA damage (ADR or etoposide) in presence of LY2119301
Method: as §3, with “2004). […]” for “2004).”

[3] = test system: p53-responsive genes in HCT116; assay: Microarray analysis of p53-responsive genes; assay type: cell-based, Human; settings: concurrent treatment with ADR and LY2119301
Method: as §3

[4] = nuclear and cytoplasmic fractions
[5] = LY2119301 with ADR or etoposide
[6] = co-treated with LY2119301 and ADR or etoposide, 24 h

T1 sequence (P49840 whole entry): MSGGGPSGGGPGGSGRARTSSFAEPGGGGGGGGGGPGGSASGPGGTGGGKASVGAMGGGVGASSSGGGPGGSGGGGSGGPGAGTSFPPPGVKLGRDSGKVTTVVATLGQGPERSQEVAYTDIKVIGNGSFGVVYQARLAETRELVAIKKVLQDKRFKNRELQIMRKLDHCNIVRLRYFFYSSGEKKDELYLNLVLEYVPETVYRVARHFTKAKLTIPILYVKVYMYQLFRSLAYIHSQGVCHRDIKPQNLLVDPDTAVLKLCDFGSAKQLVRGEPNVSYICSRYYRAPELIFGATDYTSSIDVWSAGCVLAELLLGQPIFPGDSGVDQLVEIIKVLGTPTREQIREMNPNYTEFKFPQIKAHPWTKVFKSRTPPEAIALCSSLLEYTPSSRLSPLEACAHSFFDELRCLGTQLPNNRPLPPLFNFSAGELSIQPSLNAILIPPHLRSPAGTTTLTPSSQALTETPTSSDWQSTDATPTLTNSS

## CN1CCN(c2ccc(NCCNc3ccc([N+](=O)[O-])c(N)n3)nc2-c2ccc(Cl)cc2Cl)C(=O)C1 [LY2119301]
GSK-3α; HCT116 whole lysate immunoblot
  activating tyrosine phosphorylation on GSK-3α: almost completely blocked
  inhibitory serine 21 phosphorylation on GSK-3α: much lesser extent
GSK-3α; [4]
  tyrosine phosphorylation of GSK-3α: blocked
GSK-3β; HCT116 whole lysate immunoblot
  activating tyrosine phosphorylation on GSK-3β: almost completely blocked
  inhibitory serine 9 phosphorylation on GSK-3β: increase
GSK-3β; [4]
  tyrosine phosphorylation of GSK-3β: blocked
GSK-3β; nuclear and cytoplasmic fractions, with or without DNA damage
  serine phosphorylation on GSK-3β in cytoplasm and nucleus: triggered
LoVo cells
  apoptosis induced by LY2119301 upon DNA damage: resistant
p53 in HCT116 cells
  etoposide-induced p53 accumulation in cytosol: similarly decreased
  etoposide-induced p53 accumulation in mitochondria: similarly decreased
HCT116 Bax −/− cells [1]; [5]
  PARP cleavage: not observed
HCT116 Bax −/− cells [1]; [6]
  apoptosis: completely refractory
HCT116 Bax −/− cells [1]; immunoblot
  induction of p21 after ADR or etoposide: similarly reduced
  p53 accumulation after ADR or etoposide: similarly reduced
HCT116 Puma −/− cells; [5]
  PARP cleavage: evident
HCT116 Puma −/− cells; [6]
  apoptosis: marked apoptosis
HCT116 Puma −/− cells; immunoblot
  induction of p21 after ADR or etoposide: similarly reduced
  p53 accumulation after ADR or etoposide: similarly reduced
HCT116 Bax −/− cells [2]
  reduction of mitochondrial membrane potential: not
HCT116 cells (Bax+/+)
  mitochondrial membrane potential: significant reduction
HCT116 cells
  caspase 9 processing: evident
  cytochrome c release: increased
[3]
  induction of p53 responsive genes: uniformly attenuated
